{
  "source": "the supplement of paper PMC10307832",
  "assay_in_all_cases": "relative viability (nuclei count vs DMSO), 5 days (fraction); higher = more cells survive",
  "key": {"[1]": {"compound": "C1=CC=C2C(=C1)N=C(S2)C(C#N)C3=NC(=NC=C3)NCCC4=CN=CC=C4 + CC(=O)c1c(C)c2cnc(Nc3ccc(N4CCNCC4)cn3)nc2n(C2CCCC2)c1=O [Palbociclib] (partner 0.5 µM)", "outline": "(§1)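 Five library-drug doses in √10 steps were combined with a fixed anchor-drug dose, or a single drug was given alone, by pin tool to lung cancer cell lines in 1536-well plates the day after seeding. Nuclei were stained and counted after 5 days. Relative viability is the nuclei count in treated wells over that in vehicle wells, taken as the median of duplicate plates.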"}, "[2]": {"compound": "COc1cc(N2CCC(N3CCN(C)CC3)CC2)ccc1Nc1ncc(Cl)c(Nc2ccccc2S(=O)(=O)C(C)C)n1 [NVP-TAE684] + CC(=O)c1c(C)c2cnc(Nc3ccc(N4CCNCC4)cn3)nc2n(C2CCCC2)c1=O [Palbociclib] (partner 0.5 µM)", "outline": "as §1"}, "[3]": {"compound": "COc1cc(N2CCC(N3CCN(C)CC3)CC2)ccc1Nc1ncc(Cl)c(Nc2ccccc2S(=O)(=O)C(C)C)n1 [NVP-TAE684] + CC1(C)CCC(c2ccc(Cl)cc2)=C(CN2CCN(c3ccc(C(=O)NS(=O)(=O)c4ccc(N[C@H](CCN5CCOCC5)CSc5ccccc5)c(S(=O)(=O)C(F)(F)F)c4)cc3)CC2)C1 [Navitoclax] (partner 0.5 µM)", "outline": "as §1"}, "[4]": {"compound": "COc1cc(N2CCC(N3CCN(C)CC3)CC2)ccc1Nc1ncc(Cl)c(Nc2ccccc2S(=O)(=O)C(C)C)n1 [NVP-TAE684] + Cc1cc(Nc2cc(N3CCN(C)CC3)nc(Sc3ccc(NC(=O)C4CC4)cc3)n2)n[nH]1 [Tozasertib] (partner 0.1 µM)", "outline": "as §1"}, "[5]": {"compound": "COc1cc2/c(=N/c3ccc(Br)cc3F)nc[nH]c2cc1OCC1CCN(C)CC1 [Vandetanib] + Cc1nc(Nc2ncc(C(=O)Nc3c(C)cccc3Cl)s2)cc(N2CCN(CCO)CC2)n1 [Dasatinib] (partner 0.075 µM)", "outline": "as §1"}},
  "data": [
    {"cell line": "UMC-11", "values": [
      {"measurement": "relative viability", "setting": "[1]; first compound 0.005 µM", "value": 0.377},
      {"measurement": "relative viability", "setting": "[1]; first compound 0.01581 µM", "value": 0.32},
      {"measurement": "relative viability", "setting": "[1]; first compound 0.05 µM", "value": 0.294},
      {"measurement": "relative viability", "setting": "[1]; first compound 0.1581 µM", "value": 0.346},
      {"measurement": "relative viability", "setting": "[1]; first compound 0.5 µM", "value": 0.31},
      {"measurement": "relative viability", "setting": "[2]; first compound 0.2 µM", "value": 0.344},
      {"measurement": "relative viability", "setting": "[2]; first compound 0.6325 µM", "value": 0.326},
      {"measurement": "relative viability", "setting": "[2]; first compound 2 µM", "value": 0.26},
      {"measurement": "relative viability", "setting": "[3]; first compound 0.2 µM", "value": 0.331},
      {"measurement": "relative viability", "setting": "[3]; first compound 0.6325 µM", "value": 0.289},
      {"measurement": "relative viability", "setting": "[3]; first compound 2 µM", "value": 0.162},
      {"measurement": "relative viability", "setting": "[4]; first compound 0.2 µM", "value": 0.234},
      {"measurement": "relative viability", "setting": "[4]; first compound 0.6325 µM", "value": 0.199},
      {"measurement": "relative viability", "setting": "[4]; first compound 2 µM", "value": 0.197},
      {"measurement": "relative viability", "setting": "[5]; first compound 0.02 µM", "value": 0.442},
      {"measurement": "relative viability", "setting": "[5]; first compound 0.06325 µM", "value": 0.422},
      {"measurement": "relative viability", "setting": "[5]; first compound 0.2 µM", "value": 0.43},
      {"measurement": "relative viability", "setting": "[5]; first compound 0.6325 µM", "value": 0.497},
      {"measurement": "relative viability", "setting": "[5]; first compound 2 µM", "value": 0.462}
    ]}
  ]
}
